According to patent US8603764B2, “EphA kinase cancer diagnostic” (Case Western Reserve University, priority 2009, dated 2013):
“Also recorded” adds a separate entry of the source.

What was measured:
pS897-EphA2 = assay: Immunoblot with polyclonal anti-pS897-EphA2, U373 cells; type: cell-based, human; conditions: for serum-induced pS897-EphA2 under FGFR inhibition: U373 cells pretreated with 10 μM SU5402 or 100 nM BU for 30 min, 10% FBS 10 min; for induction of pS897-EphA2: serum-starved U373 cells, 10 ng/ml growth factor, 10 min
Protocol: For stationary cells, sub-confluent cells were stimulated with 1 μg/ml ephrinA1-Fc for different times. To study the signaling events in migrating cells, the monolayer of freshly confluent cells was wounded by repeated scratch-wounding using a multichannel pipette. By doing so, the cells on the wound edges were induced to migrate. Four hours after wounding cells were stimulated with 1 μg/ml ephrinA1-Fc for different times. To look at the serum-induced signaling, cells were starved in serum-free medium overnight before stimulation or wounding. Both stationary and wounded cells were stimulated with 10% FBS in the presence of 1 μg/ml Fc or ephrinA1-Fc. Immunoprecipitation and immunoblot were performed as described previously (Nat. Cell Biol. 2, 62-69).

U373 cells = assay: Boyden chamber chemotactic cell migration assay; type: cell-based, human; conditions: 10 ng/ml growth factor or 10 μM LPA
Protocol: The chemotactic cell migration was carried out as described previously (J. Cell Biol. 162, 1281-1292). Briefly, both sides of the filter were coated with 10 μg/ml rat tail collagen type I at 4° C. overnight. 1×10^5 cells in serum-free medium containing 0.1% BSA were plated in the top of insert. EphrinA1-Fc or Fc was added to a final concentration of 1 μg/ml to the lower chamber together 5% FBS or various growth factors. Cells were allowed to migrate for 4 hours and then fixed with 4% paraformaldehyde. After staining with 0.5% crystal violet, cells that have passed through the filter and stayed on the undersides of inserts were counted.

Row | Compound | serum-induced pS897-EphA2 under FGFR inhibition (pS897-EphA2) | serum-induced pS897-EphA2 (S897 phosphorylation) (pS897-EphA2; serum-starved U373 cells pretreated with 10 μM inhibitor (SH-5 30 min; LY294002 1 hour), FBS 10 min) | chemoattractant activity (chemotactic cell migration) (U373 cells) | induction of pS897-EphA2 (pS897-EphA2)
1 | COc1cc(OC)cc(-c2cc3cnc(N)nc3nc2NC(=O)NC(C)(C)C)c1 [BU, 1-(2-Amino-6-(3,5-dimethoxyphenyl)pyrido[2,3-d]pyrimidin-7-yl)-3-tert-butyl urea, reference compound] | not sufficient for inhibiting serum-induced pS897-EphA2 | – | – | –
2 | CCCCCCCCCCCCCCCCCCOC[C@H](COP(=O)(O)O[C@H]1[C@H](O)[C@@H](O)[C@H](O)C[C@H]1OC)OC [SH-5, reference compound] | – | suppressed S897 phosphorylation; also recorded: abolishes serum-induced pS897-EphA2 | – | –
3 | Cc1c[nH]c(/C=C2\C(=O)Nc3ccccc32)c1CCC(=O)O [SU5402, reference compound] | not sufficient for inhibiting serum-induced pS897-EphA2 | – | – | –
4 | EGF: growth factor implicated in development of human GBM (NSDSECPLSHDGYCLHDGVCMYIEALDKYACNCVVGYIGERCQYRDLKWWELR; UniProt P01133 971-1023, looked up) | – | – | potent chemoattractants | capable of inducing pS897-EphA2
5 | HGF: growth factor implicated in development of human GBM | – | – | potent chemoattractants | capable of inducing pS897-EphA2
6 | PDGF | – | – | potent chemoattractants | capable of inducing pS897-EphA2
7 | bFGF: growth factor implicated in development of human GBM | – | – | potent chemoattractants | capable of inducing pS897-EphA2
